Experimental data from patent US20090233997A1, “COMPOSITION FOR PROMOTING SYNTHESIS OF COLLAGEN, AND COMPOSITION FOR EXTERNAL PREPARATION FOR SKIN COMPRISING THE SAME” (LG HOUSEHOLD & HEALTH CARE, LTD., priority 2003, published 2009).
Converted amounts (≈) assume the structure as drawn. “And” between values parts separate entries of the source, which are not always exact repeats. Identical values can stand only once.

Key:
[1] = Antioxidative effect in the DPPH scavenging method; conditions: 30 minutes, 517 nm
Experimental: The antioxidative effects of 8-hydroxybergapten and prangenidin were measured by using 1,1-diphenyl-2-picrylhydrazyl (DPPH). The radical scavenging activity of each sample was calculated by measuring an optical density (O.D.) at 517 nm with a spectrophotometer. Sample solutions were prepared by extracting samples, i.e., 8-hydroxybergapten and prangenidin, in accordance with the methods of Examples 2 and 3 and mixing the samples in concentrations of 3 μg/ml, 5 μg/ml, 10 μg/ml, 12 μg/ml, 50 μg/ml, 80 μg/ml, and 100 μg/ml, individually. Then, experimental solutions were prepared by mixing the 500 μl aliquots of the tested sample solutions with 500 μl of a 1.5×10^−4 M DPPH methanolic solution. The quantity of DPPH remaining in each experimental solution was measured 30 minutes after the preparation of experimental solutions by using the spectrophotometer at 517 nm. In order to subtract the inherent optical densities of the samples from the measurement values of the experimental solutions, the optical densities of the sample solutions of the same concentrations were also measured at 517 nm. A control solution was prepared by mixing 500 μl of a 1.5×10^−4 M DPPH methanolic solution with 500 μl of a methanol solution and using the mixture 30 minutes after the preparation. The radical scavenging activity of each sample was calculated based on the following Equation 2.
To determine the radical scavenging activity of each sample, a coefficient of correlation (R), which is a value in connection with the radical scavenging activity, was obtained, and an IC50, a value that scavenges DPPH by 50%, was calculated. Also, in order to compare the antioxidative effects, the same experiment was carried out with respect to vitamin C.

[2] = tested on: skin wrinkles of hairless mice; experiment: Anti-wrinkle effect on hairless mice with light-induced skin wrinkles; format: in vivo; conditions: 5 mg/ml in 1,3-butyleneglycol, treated 6 weeks, group of 10
Experimental: The anti-wrinkle effects of xanthotoxol, 8-hydroxybergapten, and prangenidin were tested with respect to 6-week-old hairless mice having skin wrinkles caused by radiating light. Samples were prepared by extracting xanthotoxol, 8-hydroxybergapten, and prangenidin in accordance with Examples 1 through 3 and dissolving them in 1,3-butyleneglycol to thereby prepare 5 mg/ml sample solutions.
The skin wrinkles were caused by radiating light of 2 Minimum Erythema Dose (MED) to hairless mice with a solar simulator, three days a week for 10 weeks. Then, the improvement was assayed based on quality with respect to a control group of hairless mice treated with 1,3-butyleneglycol and test groups of hairless mice treated with the 5 mg/ml samples for 6 weeks.
The extent of wrinkle improvement was determined with the naked bare eye and by photographing the areas treated with the samples. The test groups and the control group were compared and the result was determined in three steps: no improvement; some improvement; and remarkable improvement.

human fibroblasts = experiment: Collagen synthesis effect in human fibroblast culture (PICP EIA Kit); format: cell-based; conditions: for Quantity of Synthesized Collagen: cultured one day, 450 nm, n=6; for Increase Rate: relative ratio to collagen generation of control group
Experimental: The collagen synthesis effect of Xanthotoxol was tested by adding Xanthotoxol to a culture broth for human fibroblasts. The quantity of the synthesized collagen was assayed by using a Procollagen Type I C-Peptide Enzyme ImmunoAssay (PICP EIA) Kit.
Xanthotoxol solution aliquots having final concentrations of 0.5 μg/ml, 1 μg/ml, 2 μg/ml, 5 μg/ml, and 10 μg/ml were added to a culture media for human fibroblasts, and the fibroblasts were cultured for one day. The culture broth of each concentration was taken out and the quantity of synthesized collagen was measured with a spectrophotometer at 450 nm by using the PICP EIA Kit.
To compare the effect of collagen synthesis, the human fibroblasts were cultured in a culture medium to which no extra element was added (i.e., a control group) and in a culture medium to which vitamin C having a final concentration of 52.8 μg/ml was added, and the quantity of synthesized collagen was measured with respect to the two samples with the same method as above.
The quantity of generated collagen was measured by using an ultraviolet ray (UV) spectrophotometer, and the increase rate of collagen generation was calculated in a relative ratio with respect to the collagen generation quantity of the control group.
The quantity of synthesized collagen and the increase rate of collagen were measured with the same method as in Experimental Example 1, except that 8-hydroxybergapten was used instead of xanthotoxol.
The quantity of synthesized collagen and the increase rate of collagen were measured with the same method as in Experimental Example 1, except that prangenidin was used instead of xanthotoxol.

[3] = tested on: ear edema of hairless mice; experiment: Anti-inflammatory effect, ear swelling method (arachidonic acid); format: in vivo; conditions: 1 wt % in ethanol, 20 μl/ear, 2 mg/ear arachidonic acid, test ear vs controlled ear, group of 3
Experimental: The anti-inflammatory effect was evaluated in an ear swelling method by using 6-week-old hairless mice. The left ears of the hairless mice were used as controlled areas to be compared with the test areas, and the right ears of the hairless mice were used as the test areas. Prior to the test, both ears of all the hairless mice were measured three times. Sample solutions were prepared by extracting xanthotoxol, 8-hydroxybergapten, and prangenidin in accordance with […] and dissolving them in ethanol at 1 wt %, individually. Then, 20 μl/ear sample solutions were applied to the right ears of the hairless mice, and 20 μl/ear of ethanol was applied to the left ear thereof. An hour later, 2 mg/ear of arachidonic acid was applied to both ears of the hairless mice. After another hour had passed, the extent of ear edema was measured by using a micrometer, three times. Also, for comparison purposes, the anti-inflammatory effect of indomethacine, which is generally known as an anti-inflammatory agent, was measured with the same method.
The anti-inflammatory effect was a ratio of a thickness of an ear in the test area to the thickness of an ear in the controlled area. It was calculated based on the following Equation 1 and presented as a damage rate.
Damage rate (%)=(thickness of ear in test area/thickness of ear in controlled area)×100 Equation 1

incision wounds of rats = experiment: Wound healing effect, tension stiffness method; format: in vivo; conditions: for Tensile Strength: 1 wt % in ethanol, 0.5 ml/cm^2 once every day for 6 days; for Strength Rate: relative to control group (ethanol only) taken as 100%
Experimental: A wound healing effect was tested with respect to 5-week-old male rats by using a tension stiffness method that reflects the quality and quantity of restoration from wounds. The backs of the rats were shaved and wounded with a scalpel, and then the incision was sutured. Sample solutions were prepared by extracting 8-hydroxybergapten and prangenidin in accordance with Examples 2 and 3, and dissolving them in ethanol at 1 wt %, individually. The sample solutions were injected into the incisions at 0.5 ml/cm^2 once every day for 6 days. After 6 days, the rats were sacrificed and the skin around the wounds was removed. Three skin specimens of 1 cm-wide skin flakes crossing the incision line were prepared for each individual and their tensile strength (g/cm) was measured by using a rheometer. The measured tensile strength was used as an index of the strength of the generated collagen fiber. The tensile strength of the control group, to which only ethanol without the sample therein was applied, was taken as 100% and the increase in the tensile strength was measured as a relative strength thereto.

| Compound | IC 50 (scavenges DPPH by 50%) [1] [µg/mL] | No Improvement (number of mice) [2] | Remarkable Improvement (number of mice) [2] | Some Improvement (number of mice) [2] | Quantity of Synthesized Collagen (human fibroblasts; 0.5 μg/ml) [Abs] | Increase Rate (human fibroblasts; 0.5 μg/ml) [%] | Quantity of Synthesized Collagen (human fibroblasts; 1.0 μg/ml) [Abs] | Increase Rate (human fibroblasts; 1.0 μg/ml) [%] | Quantity of Synthesized Collagen (human fibroblasts; 2.0 μg/ml) [Abs] | Increase Rate (human fibroblasts; 2.0 μg/ml) [%] | Quantity of Synthesized Collagen (human fibroblasts; 5.0 μg/ml) [Abs] | Increase Rate (human fibroblasts; 5.0 μg/ml) [%] | Quantity of Synthesized Collagen (human fibroblasts; 10.0 μg/ml) [Abs] | Increase Rate (human fibroblasts; 10.0 μg/ml) [%] | Damage Rate [3] [%] | Tensile Strength (incision wounds of rats) [g/cm] | Strength Rate (incision wounds of rats) [%] | Quantity of Synthesized Collagen (human fibroblasts; 52.8 μg/ml) | Increase Rate (human fibroblasts; 52.8 μg/ml) |
| --- | --- | --- | --- | --- | --- | --- | --- | --- | --- | --- | --- | --- | --- | --- | --- | --- | --- | --- | --- |
| CC(C)=CCc1c2ccoc2c(O)c2oc(=O)ccc12 [Prangenidin, 5-Benzofuranacrylic acid, 6,7-dihydroxy-4-(3-methyl-2-butenyl)-delta-lactone] | 21.6 (≈ 79.9 µM) | 1 | 4 | 5 | 1.537 ± 0.099 | 115.6 | 1.778 ± 0.121 | 133.7 | 1.801 ± 0.135 | 135.4 | 1.813 ± 0.130 | 136.3 | 1.820 ± 0.204 | 136.8 | 40 | 663 | 121 | – | – |
| O=C1O[C@H]([C@@H](O)CO)C(O)=C1O [Vitamin C, vitamin C, reference compound] | 8.43 (≈ 47.9 µM) | – | – | – | – | – | – | – | – | – | – | – | – | – | – | – | – | 1.598 ± 0.145 Abs and 1.757 ± 0.121 Abs and 1.739 ± 0.145 Abs | 141.57% and 134.1% and 130.8% |
| COc1c2ccoc2c(O)c2oc(=O)ccc12 [8-Hydroxybergapten, 5-benzofuranacrylic acid and 6,7-dihydroxy-4-methoxy-, delta-lactone] | 20.3 (≈ 87.4 µM) | 0 | 6 | 4 | 1.590 ± 0.102 | 121.4 | 1.876 ± 0.097 | 143.2 | 1.949 ± 0.111 | 148.8 | 1.953 ± 0.132 | 149.1 | 2.008 ± 0.129 | 153.3 | 45 | 680 | 124 | – | – |
| COc1ccc2c(c1)c(CC(=O)O)c(C)n2C(=O)c1ccc(Cl)cc1 [Indomethacine, indomethacine, reference compound] | – | – | – | – | – | – | – | – | – | – | – | – | – | – | 51 | – | – | – | – |
| O=c1ccc2cc3ccoc3c(O)c2o1 [Xanthotoxol, 8-hydroxypsoralen] | 24.0 (≈ 119 µM) | 2 | 3 | 5 | 1.449 ± 0.039 | 128.36 | 1.535 ± 0.078 | 135.94 | 1.623 ± 0.084 | 143.75 | 1.651 ± 0.130 | 146.24 | 1.657 ± 0.112 | 146.81 | 42 | 642 | 117 | – | – |
